These molecules were tested against GppNp-KRAS G12V (Homo sapiens, UniProt P01116, G12V) (assay: biochemical). Conditions: not given.
Sequence of GppNp-KRAS G12V (P01116 1-169 isoform P01116-2 G12V): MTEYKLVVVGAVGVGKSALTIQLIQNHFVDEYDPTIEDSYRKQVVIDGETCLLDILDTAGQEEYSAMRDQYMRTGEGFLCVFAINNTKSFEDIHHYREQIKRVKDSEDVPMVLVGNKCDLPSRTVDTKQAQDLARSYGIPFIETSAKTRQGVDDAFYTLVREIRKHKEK

Structure (SMILES)	IC50
C#Cc1c(F)ccc2cc(N)cc(-c3nc4c5c(nc(OC[C@@]67CCCN6C[C@H](F)C7)nc5c3F)N3[C@@H](C)CCOC[C@H]3N4C3CC3)c12 [Compound 90]	898 nM
C#Cc1c(F)ccc2cc(N)cc(-c3nc4c5c(nc(OC[C@@]67CCCN6C[C@H](F)C7)nc5c3F)N3CCCOCC3N4C3CC3)c12 (some centres unmarked) [Compound 68]	356 nM
CCc1c(F)ccc2cc(N)cc(-c3nc4c5c(nc(OC[C@@]67CCCN6C[C@H](F)C7)nc5c3F)N3[C@@H](C)CCOC[C@H]3N4C)c12 [Compound 127]	> 1000 nM

What follows are molecules tested on SW620 cells (K-Ras G12V) (assay: Phospho-ERK1/2(THR202/TYR204) HTRF assay, SW620). Conditions: 2 hours incubation, read-out: pERK, IC50, SW620.
Type: cell-based

Structure (SMILES)	IC50
C=Cc1c(F)ccc2cc(N)cc(-c3nc4c5c(nc(OC[C@@]67CCCN6C[C@H](F)C7)nc5c3F)N3CCCOC[C@H]3CO4)c12 [Compound 6B]	16.2 nM
C#Cc1c(F)ccc2cc(N)cc(-c3nc4c5c(nc(OC[C@@]67CCCN6C[C@H](F)C7)nc5c3F)N3CCCOC[C@H]3[C@H](C)O4)c12 [Compound 18A]	59.4 nM
CCc1c(F)ccc2cc(N)cc(-c3nc4c5c(nc(OC[C@@]67CCCN6C[C@H](F)C7)nc5c3F)N3CCCOC[C@H]3CO4)c12 [Compound 6A]	12.5 nM

Same assay, conditions: Homo sapiens, SW-620, 2 hours incubation, read-out: pERK, IC50, SW620

Structure (SMILES)	IC50
C#Cc1c(F)ccc2cc(N)cc(-c3nc4c5c(nc(OC[C@@]67CCCN6C[C@H](F)C7)nc5c3F)N3[C@@H](C)CCOC[C@H]3N4C3CC3)c12 [Compound 90]	9.38 nM
C#Cc1c(F)ccc2cc(N)cc(-c3nc4c5c(nc(OC[C@@]67CCCN6C[C@H](F)C7)nc5c3F)N3CCCOCC3N4C3CC3)c12 (some centres unmarked) [Compound 68]	5.95 nM
CCc1c(F)ccc2cc(N)cc(-c3nc4c5c(nc(OC[C@@]67CCCN6C[C@H](F)C7)nc5c3F)N3[C@@H](C)CCOC[C@H]3N4C)c12 [Compound 127]	21.9 nM

These molecules were tested against T1, GDP-KRAS G12D (Homo sapiens, UniProt P01116, G12D) (assay: biochemical). Conditions: not given.
T1 sequence (P01116 1-169 isoform P01116-2 G12D): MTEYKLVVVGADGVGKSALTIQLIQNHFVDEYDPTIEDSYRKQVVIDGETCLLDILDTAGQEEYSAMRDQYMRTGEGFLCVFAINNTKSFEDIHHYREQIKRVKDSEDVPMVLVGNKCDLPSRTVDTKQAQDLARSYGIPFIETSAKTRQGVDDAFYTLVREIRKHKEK

Structure (SMILES)	IC50
C#Cc1c(F)ccc2cc(N)cc(-c3nc4c5c(nc(OC[C@@]67CCCN6C[C@H](F)C7)nc5c3F)N3[C@@H](C)CCOC[C@H]3N4C3CC3)c12 [Compound 90]	3.72 nM
C#Cc1c(F)ccc2cc(N)cc(-c3nc4c5c(nc(OC[C@@]67CCCN6C[C@H](F)C7)nc5c3F)N3CCCOCC3N4C3CC3)c12 (some centres unmarked) [Compound 68]	2.18 nM
CCc1c(F)ccc2cc(N)cc(-c3nc4c5c(nc(OC[C@@]67CCCN6C[C@H](F)C7)nc5c3F)N3[C@@H](C)CCOC[C@H]3N4C)c12 [Compound 127]	3.87 nM

The molecules below were run on AsPC-1 cells (K-Ras G12D) (assay: not given). Conditions: not given.

Structure (SMILES)	IC50
C=Cc1c(F)ccc2cc(N)cc(-c3nc4c5c(nc(OC[C@@]67CCCN6C[C@H](F)C7)nc5c3F)N3CCCOC[C@H]3CO4)c12 [Compound 6B]	266 nM
C#Cc1c(F)ccc2cc(N)cc(-c3nc4c5c(nc(OC[C@@]67CCCN6C[C@H](F)C7)nc5c3F)N3CCCOC[C@H]3[C@H](C)O4)c12 [Compound 18A]	391 nM
C#Cc1c(F)ccc2cc(N)cc(-c3nc4c5c(nc(OC[C@@]67CCCN6C[C@H](F)C7)nc5c3F)N3[C@@H](C)CCOC[C@H]3N4C3CC3)c12 [Compound 90]	415 nM
C#Cc1c(F)ccc2cc(N)cc(-c3nc4c5c(nc(OC[C@@]67CCCN6C[C@H](F)C7)nc5c3F)N3CCCOCC3N4C3CC3)c12 (some centres unmarked) [Compound 68]	169 nM
CCc1c(F)ccc2cc(N)cc(-c3nc4c5c(nc(OC[C@@]67CCCN6C[C@H](F)C7)nc5c3F)N3[C@@H](C)CCOC[C@H]3N4C)c12 [Compound 127]	173 nM
CCc1c(F)ccc2cc(N)cc(-c3nc4c5c(nc(OC[C@@]67CCCN6C[C@H](F)C7)nc5c3F)N3CCCOC[C@H]3CO4)c12 [Compound 6A]	175 nM

The molecules below were run against T2, GppNp-KRAS G12D (Homo sapiens, UniProt P01116, G12D) (assay: GTP-K-Ras and cRAF interaction assay, GppNp-KRAS G12D). Conditions: read-out: Biochemical assays, IC50, KRAS G12D GppNp; GppNp-loaded K-Ras G12D, cRAF RBD interaction, HTRF.
T2 sequence (P01116 1-169 isoform P01116-2 G12D): as above

Structure (SMILES)	IC50
C=Cc1c(F)ccc2cc(N)cc(-c3nc4c5c(nc(OC[C@@]67CCCN6C[C@H](F)C7)nc5c3F)N3CCCOC[C@H]3CO4)c12 [Compound 6B]	808 nM
CCc1c(F)ccc2cc(N)cc(-c3nc4c5c(nc(OC[C@@]67CCCN6C[C@H](F)C7)nc5c3F)N3CCCOC[C@H]3CO4)c12 [Compound 6A]	497 nM

The molecules below were run against T3, GDP-KRAS G12V (Homo sapiens, UniProt P01116, G12V) (assay: SOS1 catalyzed nucleotide exchange assay, GDP-KRAS G12V). Conditions: read-out: Biochemical assays, IC50, KRAS G12V GDP, GDP form K-Ras G12V, TR-FRET.
T3 sequence (P01116 1-169 isoform P01116-2 G12V): as the sequence (P01116 1-169 isoform P01116-2 G12V) above

Structure (SMILES)	IC50
C=Cc1c(F)ccc2cc(N)cc(-c3nc4c5c(nc(OC[C@@]67CCCN6C[C@H](F)C7)nc5c3F)N3CCCOC[C@H]3CO4)c12 [Compound 6B]	3.82 nM
C#Cc1c(F)ccc2cc(N)cc(-c3nc4c5c(nc(OC[C@@]67CCCN6C[C@H](F)C7)nc5c3F)N3CCCOC[C@H]3[C@H](C)O4)c12 [Compound 18A]	4.72 nM
CCc1c(F)ccc2cc(N)cc(-c3nc4c5c(nc(OC[C@@]67CCCN6C[C@H](F)C7)nc5c3F)N3CCCOC[C@H]3CO4)c12 [Compound 6A]	3.37 nM

These molecules were tested against T3, GDP-KRAS G12V (assay: biochemical). Conditions: not given.

Structure (SMILES)	IC50
C#Cc1c(F)ccc2cc(N)cc(-c3nc4c5c(nc(OC[C@@]67CCCN6C[C@H](F)C7)nc5c3F)N3[C@@H](C)CCOC[C@H]3N4C3CC3)c12 [Compound 90]	1.28 nM
C#Cc1c(F)ccc2cc(N)cc(-c3nc4c5c(nc(OC[C@@]67CCCN6C[C@H](F)C7)nc5c3F)N3CCCOCC3N4C3CC3)c12 (some centres unmarked) [Compound 68]	3.49 nM
CCc1c(F)ccc2cc(N)cc(-c3nc4c5c(nc(OC[C@@]67CCCN6C[C@H](F)C7)nc5c3F)N3[C@@H](C)CCOC[C@H]3N4C)c12 [Compound 127]	2.13 nM

The molecules below were run against T2, GppNp-KRAS G12D (assay: biochemical). Conditions: not given.

Structure (SMILES)	IC50
C#Cc1c(F)ccc2cc(N)cc(-c3nc4c5c(nc(OC[C@@]67CCCN6C[C@H](F)C7)nc5c3F)N3[C@@H](C)CCOC[C@H]3N4C3CC3)c12 [Compound 90]	190 nM
C#Cc1c(F)ccc2cc(N)cc(-c3nc4c5c(nc(OC[C@@]67CCCN6C[C@H](F)C7)nc5c3F)N3CCCOCC3N4C3CC3)c12 (some centres unmarked) [Compound 68]	187 nM
CCc1c(F)ccc2cc(N)cc(-c3nc4c5c(nc(OC[C@@]67CCCN6C[C@H](F)C7)nc5c3F)N3[C@@H](C)CCOC[C@H]3N4C)c12 [Compound 127]	299 nM

The molecules below were run against T1, GDP-KRAS G12D (assay: SOS1 catalyzed nucleotide exchange assay, GDP-KRAS G12D). Conditions: read-out: Biochemical assays, IC50, KRAS G12D GDP, GDP form K-Ras G12D, TR-FRET.

Structure (SMILES)	IC50
C=Cc1c(F)ccc2cc(N)cc(-c3nc4c5c(nc(OC[C@@]67CCCN6C[C@H](F)C7)nc5c3F)N3CCCOC[C@H]3CO4)c12 [Compound 6B]	3.83 nM
C#Cc1c(F)ccc2cc(N)cc(-c3nc4c5c(nc(OC[C@@]67CCCN6C[C@H](F)C7)nc5c3F)N3CCCOC[C@H]3[C@H](C)O4)c12 [Compound 18A]	5.42 nM
CCc1c(F)ccc2cc(N)cc(-c3nc4c5c(nc(OC[C@@]67CCCN6C[C@H](F)C7)nc5c3F)N3CCCOC[C@H]3CO4)c12 [Compound 6A]	1.24 nM

Each molecule was assayed on SW620 cells (K-Ras G12V) (assay: not given). Conditions: not given.

Structure (SMILES)	IC50
C=Cc1c(F)ccc2cc(N)cc(-c3nc4c5c(nc(OC[C@@]67CCCN6C[C@H](F)C7)nc5c3F)N3CCCOC[C@H]3CO4)c12 [Compound 6B]	28.3 nM
C#Cc1c(F)ccc2cc(N)cc(-c3nc4c5c(nc(OC[C@@]67CCCN6C[C@H](F)C7)nc5c3F)N3CCCOC[C@H]3[C@H](C)O4)c12 [Compound 18A]	62 nM
C#Cc1c(F)ccc2cc(N)cc(-c3nc4c5c(nc(OC[C@@]67CCCN6C[C@H](F)C7)nc5c3F)N3[C@@H](C)CCOC[C@H]3N4C3CC3)c12 [Compound 90]	40.6 nM
C#Cc1c(F)ccc2cc(N)cc(-c3nc4c5c(nc(OC[C@@]67CCCN6C[C@H](F)C7)nc5c3F)N3CCCOCC3N4C3CC3)c12 (some centres unmarked) [Compound 68]	39.3 nM
CCc1c(F)ccc2cc(N)cc(-c3nc4c5c(nc(OC[C@@]67CCCN6C[C@H](F)C7)nc5c3F)N3[C@@H](C)CCOC[C@H]3N4C)c12 [Compound 127]	62.6 nM
CCc1c(F)ccc2cc(N)cc(-c3nc4c5c(nc(OC[C@@]67CCCN6C[C@H](F)C7)nc5c3F)N3CCCOC[C@H]3CO4)c12 [Compound 6A]	26.4 nM

Source: US20260200947A1, “FUSED CYCLIC COMPOUNDS AND USE THEREOF” (Jacobio Pharmaceuticals Co., Ltd., priority 2022, published 2026)
